Assay results as given in the supplement of paper PMC4862054.

Assays:
Assay in all cases: normalised viability (% of control), CellTiter-Blue; higher = more viable cells (about 100 = DMSO control)
Conditions in all cases: incubation time: 72 h
CAL-148 [1] = test system: CAL-148
Method: (§1)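 DSRT, CellTiter-Blue viability, 72 h incubation. Signal is normalised to DMSO and benzethonium chloride controls. Value is the normalised response at dose 8.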

CAL-51 [2] = test system: CAL-51
Method: as §1

CAL-85-1 [3] = test system: CAL-85-1
Method: as §1

DU-4475 [4] = test system: DU-4475
Method: as §1

HDQ-P1 [5] = test system: HDQ-P1
Method: as §1

MDA-MB-453 [6] = test system: MDA-MB-453
Method: as §1

CAL-148 [7] = test system: CAL-148; remark: listed apart in the source
Method: (§2)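 DSRT, CellTiter-Blue viability, 72 h incubation. Signal is normalised to DMSO and benzethonium chloride controls. Value is the normalised response at dose 7.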

CAL-51 [8] = test system: CAL-51; remark: listed apart in the source
Method: as §2

CAL-85-1 [9] = test system: CAL-85-1; remark: listed apart in the source
Method: as §2

DU-4475 [10] = test system: DU-4475; remark: listed apart in the source
Method: as §2

HDQ-P1 [11] = test system: HDQ-P1; remark: listed apart in the source
Method: as §2

MDA-MB-453 [12] = test system: MDA-MB-453; remark: listed apart in the source
Method: as §2

CAL-148 [13] = test system: CAL-148; remark: listed apart in the source
Method: (§3)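 DSRT, CellTiter-Blue viability, 72 h incubation. Signal is normalised to DMSO and benzethonium chloride controls. Value is the normalised response at dose 6.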

CAL-51 [14] = test system: CAL-51; remark: listed apart in the source
Method: as §3

CAL-85-1 [15] = test system: CAL-85-1; remark: listed apart in the source
Method: as §3

DU-4475 [16] = test system: DU-4475; remark: listed apart in the source
Method: as §3

HDQ-P1 [17] = test system: HDQ-P1; remark: listed apart in the source
Method: as §3

MDA-MB-453 [18] = test system: MDA-MB-453; remark: listed apart in the source
Method: as §3

SMILES | normalised viability (CAL-148 [1]) [%] | normalised viability (CAL-51 [2]) [%] | normalised viability (CAL-85-1 [3]) [%] | normalised viability (DU-4475 [4]) [%] | normalised viability (HDQ-P1 [5]) [%] | normalised viability (MDA-MB-453 [6]) [%] | also measured
COc1cc2c(N3CCN(C(=O)Nc4ccc(OC(C)C)cc4)CC3)ncnc2cc1OCCCN1CCCCC1 [Tandutinib] (300 nM) | 94.4 | 115 | 95.7 | 109 | 93.5 | 102 | 
N[C@@H](Cc1ccc(N(CCCl)CCCl)cc1)C(=O)O [Melphalan] (99 nM) |  |  |  |  |  |  | normalised viability (CAL-148 [7]): 106%; normalised viability (CAL-51 [8]): 109%; normalised viability (CAL-85-1 [9]): 79.4%; normalised viability (DU-4475 [10]): 86.2%; normalised viability (HDQ-P1 [11]): 100%; normalised viability (MDA-MB-453 [12]): 101%
Cc1cc2c(F)c(Oc3ncnn4cc(OC[C@@H](C)O)c(C)c34)ccc2[nH]1 [Brivanib] (300 nM) | 98.5 | 93.6 | 89.8 | 98.9 | 113 | 99.1 | 
Cn1nnc2c(C(N)=O)ncn2c1=O [Temozolomide] (3000 nM) | 88.8 | 93.6 | 97.3 | 100 | 103 | 104 | 
NC1(c2ccc(-c3nc4ccn5c(=O)[nH]nc5c4cc3-c3ccccc3)cc2)CCC1 [MK-2206] (300 nM) | 91.3 | 98.8 | 82.9 | 100 | 77.5 | 73 | 
CC[C@@H]1C(=O)N(C)c2cnc(Nc3ccc(C(=O)N[C@H]4CC[C@H](N5CCN(CC6CC6)CC5)CC4)cc3OC)nc2N1C(C)C [Volasertib] (300 nM) | 26.6 | 9.3 | 64.6 | 18.6 | 59.4 | 34.3 | 
C[C@]12C=CC(=O)C=C1CC[C@@H]1[C@@H]2C(=O)C[C@@]2(C)[C@H]1CC[C@]2(O)C(=O)CO [Prednisone] (3000 nM) | 94.2 | 102 | 99.3 | 104 | 120 | 93.5 | 
C[C@@H](C(=O)O)c1ccc(-c2ccccc2)c(F)c1 [Tarenflurbil] (3000 nM) | 94.4 | 113 | 88.8 | 115 | 93 | 79.5 | 
CC(C)C[C@H](NC(=O)[C@H](CCc1ccccc1)NC(=O)CN1CCOCC1)C(=O)N[C@@H](Cc1ccccc1)C(=O)N[C@@H](CC(C)C)C(=O)[C@@]1(C)CO1 [Carfilzomib] (300 nM) | 1.83 | 2.56 | 2.07 | 1.31 | 0.3 | 18.1 | 
C[C@@H](CN1CC(=O)NC(=O)C1)N1CC(=O)NC(=O)C1 [Dexrazoxane] (3000 nM) | 96 | 83.9 | 104 | 92.8 | 98.1 | 87.5 | 
CO[C@H]1C[C@@H]2CC[C@@H](C)[C@@](O)(O2)C(=O)C(=O)N2CCCC[C@H]2C(=O)O[C@H]([C@H](C)C[C@@H]2CC[C@@H](O)[C@H](OC)C2)CC(=O)[C@H](C)/C=C(\C)[C@@H](O)[C@@H](OC)C(=O)[C@H](C)C[C@H](C)/C=C/C=C/C=C/1C [Sirolimus] (300 nM) | 39.1 | 31.1 | 59.8 | 63.7 | 58.8 | 31.6 | 
CN1CCN(c2nc(C3=C(c4c[nH]c5ccccc45)C(=O)NC3=O)c3ccccc3n2)CC1 [Sotrastaurin] (3000 nM) | 116 | 97.3 | 141 | 95.9 | 126 | 93.8 | 
Nc1nc(Cl)nc2c1ncn2[C@@H]1O[C@H](CO)[C@@H](O)[C@@H]1F [Clofarabine] (3000 nM) | 32.9 | 15.4 | 54.5 | 19.6 | 95.6 | 44.4 | 
COc1cc2c(Oc3ccc(NC(=O)C4(C(=O)Nc5ccc(F)cc5)CC4)cc3F)ccnc2cc1OCCCN1CCOCC1 [Foretinib] (300 nM) | 91.6 | 68.5 | 84 | 98.8 | 60.9 | 75.4 | 
O=NN(CCCl)C(=O)NC1CCCCC1 [Lomustine] (300 nM) |  |  |  |  |  |  | normalised viability (CAL-148 [13]): 106%; normalised viability (CAL-51 [14]): 105%; normalised viability (CAL-85-1 [15]): 104%; normalised viability (DU-4475 [16]): 110%; normalised viability (HDQ-P1 [17]): 84.1%; normalised viability (MDA-MB-453 [18]): 112%
O=C(O)CC[C@H]1CC[C@@](c2cc(F)ccc2F)(S(=O)(=O)c2ccc(Cl)cc2)CC1 [MK-0752] (300 nM) | 95.3 | 119 | 94.6 | 115 | 114 | 114 | 
Cc1c(C(=O)Nc2ccc(N3C[C@@H](C)O[C@@H](C)C3)nc2)cccc1-c1ccc(OC(F)(F)F)cc1 [NVP-LDE225] (1000 nM) |  |  |  |  |  |  | normalised viability (CAL-148 [7]): 107%; normalised viability (CAL-51 [8]): 99.5%; normalised viability (CAL-85-1 [9]): 98.8%; normalised viability (DU-4475 [10]): 118%; normalised viability (HDQ-P1 [11]): 90.1%; normalised viability (MDA-MB-453 [12]): 92.9%
